Test results reported in PubChem BioAssay (NCI).
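These data come from cells grown in 96-well plates and exposed to compound for 48 hours at five concentrations. At the GI50, growth is halved. The concentration for full growth arrest is given as TGI.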

What was measured:
Assay in all cases: NCI-60 cell line screen, 48 h
[1] = system: SNB-19 CNS
[2] = system: SN12C renal
[3] = system: SK-MEL-28 melanoma
[4] = system: HCT-116 colon
[5] = system: OVCAR-4 ovarian
[6] = system: UACC-62 melanoma
[7] = system: A549 NSCLC
[8] = system: OVCAR-3 ovarian
[9] = system: UO-31 renal
[10] = system: TK-10 renal

Row | SMILES | TGI [1] [µM] | TGI [2] [µM] | TGI [3] [µM] | TGI [4] [µM] | TGI [5] [µM] | TGI [6] [µM] | TGI [7] [µM] | TGI [8] [µM] | TGI [9] [µM] | TGI [10] [µM] | GI50 [1] [µM] | GI50 [2] [µM] | GI50 [3] [µM] | GI50 [4] [µM] | GI50 [5] [µM] | GI50 [7] [µM] | GI50 [8] [µM] | GI50 [9] [µM] | GI50 [10] [µM]
1 | O=c1ccc2nc3cc(Br)ccc3sc-2c1 | > 100 | > 100 | > 100 | > 100 | > 100 | > 100 | > 100 | > 100 | > 100 | > 100 | – | – | – | – | – | – | – | – | –
2 | C[N+]1(CCC(=O)c2ccco2)CC2CCC(CC2)C1 (stereo not given) | > 100 | > 100 | > 100 | > 100 | > 100 | > 100 | > 100 | > 100 | > 100 | > 100 | – | – | – | – | – | – | – | – | –
3 | Nc1c(C(=O)O)nnc2cc(Cl)c(Cl)cc12 | > 100 | > 100 | – | > 100 | > 100 | > 100 | > 100 | > 100 | > 100 | > 100 | – | – | – | – | – | – | – | – | –
4 | COc1ccc(C(=O)C2=NON3OC23C(=O)c2ccc(OC)cc2)cc1 (stereo not given) | 33.7 | 28.6 | 32.7 | 19.6 | 16.2 | 37 | 48.5 | 23.3 | 28 | 34.1 | – | – | – | – | – | – | – | – | –
5 | CN(C)c1ccc(C=Nc2ccc(Oc3ccc(Cl)cc3)c(Cl)c2)cc1 | 41.3 | 43.6 | 48.6 | 34.5 | 66.4 | 36.1 | 53.4 | 32.4 | 22.9 | > 100 | – | – | – | – | – | – | – | – | –
6 | COCC1CCCN1c1ccc(C=N/C(C#N)=C(\N)C#N)cc1 (stereo not given) | > 100 | 84.5 | > 100 | > 100 | > 100 | – | > 100 | > 100 | > 100 | > 100 | 36.7 | 4.85 | > 100 | 9.19 | > 100 | 14 | 46.1 | 4.98 | 49.2
7 | COCCNCc1ccc(-c2cc3nccc(Oc4ccc(NC(=S)NC(=O)Cc5ccc(F)cc5)cc4F)c3s2)nc1 | – | – | – | – | – | – | 3.29 | 3.52 | – | 5.08 | – | – | – | – | – | 1.72 | 1.93 | – | 2.45
8 | Cn1c(=O)[nH]c2nncnc2c1=O | 419 | > 497 | > 625 | 219 | > 319 | 146 | > 525 | 298 | 358 | – | – | – | – | – | – | – | – | – | –
9 | Cn1cnc([N+](=O)[O-])c1Sc1nc(N)nc2c1ncn2C1OC(CO)C(O)C1O (stereo not given) | > 100 | > 100 | > 100 | > 52.2 | > 100 | 22.7 | > 91 | > 43.4 | 37.4 | 87.6 | – | – | – | – | – | – | – | – | –
10 | COc1cc2oc(=O)ccc2cc1C(=O)CC(C)C | > 100 | > 100 | > 100 | > 100 | > 100 | > 100 | > 100 | > 100 | > 100 | > 100 | – | – | – | – | – | – | – | – | –
11 | Cc1coc2c1C[C@@]1(C)[C@H](CCC[C@@H]1C)[C@H]2O | > 100 | 55.5 | > 100 | > 100 | 68.4 | > 100 | – | 57.8 | – | > 100 | – | – | – | – | – | – | – | – | –
12 | Nc1ncnc2c1sc1nc3ccccc3n12 | > 100 | > 100 | > 100 | – | > 100 | > 100 | > 100 | > 100 | > 100 | > 100 | – | – | – | – | – | – | – | – | –
13 | O=c1[nH]c(Nc2ccc(Cl)c(C(F)(F)F)c2)nc2nc[nH]c12 | > 100 | > 100 | – | > 100 | > 100 | > 100 | > 100 | > 100 | > 100 | > 100 | – | – | – | – | – | – | – | – | –
14 | N#CC12Cc3cc4c(cc3-c3cccc(c31)CCN2C(=O)c1ccccc1)OCO4 (stereo not given) | > 100 | > 100 | > 100 | > 100 | – | > 100 | > 100 | > 100 | > 100 | > 100 | – | – | – | – | – | – | – | – | –
15 | OCc1cn(C(c2ccccc2)(c2ccccc2)c2ccccc2)cn1 | > 100 | > 100 | > 100 | > 100 | > 100 | – | > 100 | > 100 | > 100 | > 100 | – | – | – | – | – | – | – | – | –
16 | COc1ccc2nc3c(C(=O)NCCN(C)C)cccc3cc2c1 | 7.58 | 6.93 | 8.79 | 9.27 | 8.49 | 3.33 | 5.26 | > 28.6 | 3.97 | – | – | – | – | – | – | – | – | – | –
17 | CC(C)(C)OC(=O)NC(CCCCNC(=O)OCc1ccccc1)C(=O)NCCNc1ccc(NCCNC(=O)C(CCCCNC(=O)OCc2ccccc2)NC(=O)OC(C)(C)C)c2c1C(=O)c1ccccc1C2=O (stereo not given) | 45.9 | > 100 | > 100 | > 75.1 | > 100 | > 100 | > 100 | > 100 | > 100 | > 100 | – | – | – | – | – | – | – | – | –
